The values that follow come from US9744177B2, “Treatment of male androgen deficiency symptoms or diseases with sex steroid precursor combined with SERM” (ENDORECHERCHE, INC., priority 2014, dated 2017).

The conditions of data set [1]: female, Long-Evans, rat, in vivo, po, 20 mg/kg.
The test system of data set [2] is ovariectomized female rats. Description: 3-month treatment of ovariectomized female rats: lumbar spine BMD, total fat, cholesterol, ALP (Example 3, experiment 1). It counts as in vivo, Sprague-Dawley rats. Conditions: OVX rats, 3 months, serum. Here is the method: Ten to twelve week-old female Sprague-Dawley rats (Crl:CD(SD)Br) (Charles River Laboratory, St-Constant, Canada) weighing approximately 220-270 g at start of treatment were used. The animals were acclimatized to the environmental conditions (temperature: 22±3° C.; humidity: 50±20%; 12-h light-12-h dark cycles, lights on at 07:15 h) for at least 1 week before starting the experiments. The animals were housed individually and were allowed free access to tap water and a pelleted certified rodent feed (Lab Diet 5002, Ralston Purina, St-Louis, Mo.). Experiments were conducted in an animal facility approved by the Canadian Council on Animal Care (CCAC) and the Association for Assessment and Accreditation of Laboratory Animal Care (AAALAC) in accordance with the CCAC Guide for Care and Use of Experimental Animals.
On Day 1 of the study, the animals of the appropriate groups were bilaterally ovariectomized (OVX) under isoflurane anesthesia. The DHEA was applied topically on the dorsal skin as a solution in 50% ethanol-50% propylene glycol while the other tested compounds were administered as suspension in 0.4% methylcellulose by oral gavage. Treatments were initiated on Day 2 of the study and were performed once daily during 3 months.
(§1) After 3 months (experiment 1) or 26 weeks (experiment 2) of treatment, individual rats under Isoflurane anesthesia had their whole body skeleton and lumbar spine scanned using dual energy x-ray absorptiometry (DEXA; QDR 4500A, Hologic, Waltham, Mass.) and a Regional High Resolution Scan software. The bone mineral density (BMD) of the lumbar spine (vertebrae L2 to L4) and the total body composition (fat percentage) were determined.
After 3 months (experiment 1) or 26 weeks (experiment 2) of treatment, blood samples were collected at the jugular vein from overnight fasted animals (under Isoflurane anesthesia). Samples were processed for serum preparation and frozen at −80° C. until assay. Serum cholesterol levels and alkaline phospatase activity (ALP) were determined using the Boehringer Mannheim Diagnostic Hitachi 911 Analyzer (Boehringer Mannheim Diagnostic Laboratory Systems).
Data are expressed as means±SEM. Statistical significance was determined according to the multiple-range test of Duncan-Kramer (Kramer 1956).

Data set [3] has as its system ovariectomized female rats. Nature of the data set: 26-week treatment of ovariectomized female rats: lumbar spine BMD, total fat, cholesterol, ALP (Example 3, experiment 2). It counts as in vivo, Sprague-Dawley rats. Conditions: OVX rats, 26 weeks, serum. The method, then: Ten to twelve week-old female Sprague-Dawley rats (Crl:CD(SD)Br) (Charles River Laboratory, St-Constant, Canada) weighing approximately 220-270 g at start of treatment were used. The animals were acclimatized to the environmental conditions (temperature: 22±3° C.; humidity: 50±20%; 12-h light-12-h dark cycles, lights on at 07:15 h) for at least 1 week before starting the experiments. The animals were housed individually and were allowed free access to tap water and a pelleted certified rodent feed (Lab Diet 5002, Ralston Purina, St-Louis, Mo.). […]
as §1
After 3 months (experiment 1) or 26 weeks (experiment 2) of treatment, blood samples were collected at the jugular vein from overnight fasted animals (under Isoflurane anesthesia). […] Serum cholesterol levels and alkaline phospatase activity (ALP) were determined using the Boehringer Mannheim Diagnostic Hitachi 911 Analyzer (Boehringer Mannheim Diagnostic Laboratory Systems).
Data are expressed as means±SEM. […]

In data set [4] the test system is serum testosterone. Description: Serum testosterone in male cynomolgus monkeys dosed orally. It counts as in vivo. To be noted: oral 2.5, 10 or 40 mg acolbifene/day, 13 weeks. Here is the method: FIG. 13: Male cynomolgus monkeys were dosed orally with 2.5, 10 or 40 mg acolbifene/day for 13 weeks. Control monkeys received vehicle alone (0.4% methylcellulose). […] Results are expressed as the mean±SEM of 4 monkeys per group. P values (versus control) were calculated using a two-sided t test assuming equality of variances. FIG. 14: […] Control monkeys received vehicle alone (0.4% methylcellulose). […] P values (versus control) were calculated using a two-sided t test assuming equality of variances.

The subject of data set [5] is serum E2 levels. Description: Serum E2 in a premenopausal person with advanced breast cancer on acolbifene. It counts as in vivo, human. Conditions: 20 mg daily oral, 6 months, from 222 before.
The subject of data set [6] is uterine epithelial cells. Description: Thickness of uterine (endometrial) epithelial cells in ovariectomized nude mice. Conditions: no estrone, 200 μg daily.
Data set [7] concerns human ZR-75-1 breast tumors. Description: ZR-75-1 tumor growth in ovariectomized nude mice in absence of estrone (agonistic effects). To be noted: no estrone, 200 μg daily, 161 days, hydrochloride.
Data set [8] relates to ovariectomized mice. Nature of the data set: Estrogenic activity: uterine and vaginal weight in ovariectomized mice, compounds alone. To be noted: OVX mice, no estrone; 10 μg daily oral. It counts as in vivo, BALB/c mice. Here is the method:
Female BALB/c mice (BALB/cAnNCrlBR) weighing 18-20 g were obtained from Charles-River, Inc. (St-Constant, Quebec, Canada) and housed 5 per cage in a temperature (23±1° C.)- and light (12 h light/day, lights on at 7:15)-controlled environment. The mice were fed rodent chow and tap water ad libitum. The animals were ovariectomized (OVX) under Isoflurane anesthesia via bilateral flank incisions and randomly assigned to groups of 10 animals. Ten mice were kept intact as controls.
In the second experiment (Table 4), TSE 424 was administered orally by gavage once daily at doses of 1, 3, 10 or 30 μg/animal for 9 days, starting 2 days after ovariectomy. In both experiments, to evaluate the antiestrogenic activity, treatment with estrone (E1, 0.06 μg, s.c. injection, twice daily) was started 5 days post-ovariectomy and was administered for a 6 day-period. Compounds were dissolved in ethanol (4% final concentration) and administered in 0.4% methylcellulose. Mice in the intact and OVX control groups received the vehicle alone (4% ETOH-0.4% methylcellulose) during the 9-day period. The animals were killed by exsanguination at the abdominal aorta on the 11th morning following ovariectomy. The uteri and vagina were rapidly dissected, weighed, and kept in 10% buffered formalin for further histologic examination.

In data set [9] the test system is human breast cancer MCF-7 cells. Description: Proliferation of MCF-7 cells (DNA content). To be noted: Experiment 2. It counts as cell-based. The method, then:
The MCF-7 human breast adenocarcinoma cell line was derived from the pleural effusion of a patient. MCF-7 cells were used between passages 148 and 165 and subcultured weekly.
Cells in their late logarithmic growth phase were harvested with 0.1% pancreatin (Sigma) and resuspended in the appropriate medium containing 50 ng bovine insulin/mL and 5% (v/v) FBS treated twice with dextran-coated charcoal to remove endogenous steroids. Cells were plated in 24-well Falcon plastic culture plates (2 Cm^2/well) at the indicated density and allowed to adhere to the surface of the plates for 72 h. Thereafter, medium was replaced with fresh medium containing the indicated concentrations of compounds diluted from 1000× stock solutions in 99% redistilled ethanol in the presence or absence of E2. Control cells received only the ethanolic vehicle (0.1% EtOH, v/v). Cells were incubated for the specified time intervals with medium changes at 2- or 3-day intervals. Cell number was determined by measurement of DNA content.
Dose-response curves as well IC50 values were calculated using a weighted iterative nonlinear least-squares regression. All results are expressed as means±SEM.

The conditions of data set [10]: patients treated with testosterone; cited from earlier work.
The conditions of data set [11]: men with serum testosterone <3.0 ng/mL after coronography; control group 15.4%; cited from earlier work.

Entries after “also recorded” stand apart in the source; their conditions may differ.

For the compound `CC1=C(c2ccc(OC(=O)C(C)(C)C)cc2)[C@H](c2ccc(OCCN3CCCCC3)cc2)Oc2cc(OC(=O)C(C)(C)C)ccc21` [14C-EM-800], the “total drug-derived radioactivity in the brain, detection” value in data set [1] is on record as “not detected after 12 hr post dose”.
With `CC1=C(c2ccc(O)cc2)[C@H](c2ccc(OCCN3CCCCC3)cc2)Oc2cc(O)ccc21.Cl` [EM-652.HCl, (S)-(+)-7-hydroxy-3-(4′-hydroxyphenyl)-4-methyl-2-(4″-(2′″-piperidinoethoxy)phenyl)-2H-1-benzopyran hydrochloride], in data set [2], the ALP is 91 ± 6 IU/L. In addition, the CHOLESTEROL turned out to be 0.87 ± 0.04 mmol/L in data set [2] and 0.98 ± 0.06 mmol/L in data set [3]. The “serum testosterone levels (FIGS. 13 and 14)” value in [4] was “increased serum testosterone levels”. Moreover, in data set [5], the serum E2 levels is 2030 pg/mL. Also, the “height of uterine epithelial cells, % of the OVX control group value” in data set [6] stood at 114%. Moreover, the “effect of compound alone on ZR-75-1 tumor size compared to OVX control” value is listed as “did not exert any stimulatory effect; also recorded: did not significantly change” in [7] and “no effect on tumor growth” in [7] (listed as Acolbifene).
Consider `Oc1ccc2c(c1)CC[C@H](c1ccccc1)[C@@H]2c1ccc(OCCN2CCCC2)cc1` [lasofoxifene (free base)], for which, in [8], the “stimulation of uterine weight” value stood at 93% and the “stimulation of vaginal weight” value worked out at 73%. Also, the “Stimulation of DNA by tested compounds” value in data set [9] is on record as “N.S”.
Turning to `C[C@]12CC[C@H]3[C@@H](CCC4=CC(=O)CC[C@@]43C)[C@@H]1CC[C@@H]2O` [testosterone], in data set [10], the “decrease in mortality risk” value is recorded as 39% and the “lower incidence of heart disease” value is listed as 20%. The “rate of deaths at 3 years” value in data set [11] is recorded as 18.5%.
